Where two headings read alike, the source gives them in different places. Starred links: 1 amine or outer side, 2 acyl side, 3 side chain; linkers in the order of their positions; H or OH if unused. Non-standard residues stand in square brackets, D forms with d. Residues, ends and D or L forms follow the SMILES beside them. Groups on a side chain read outwards from the residue. *: point of attachment. C18 diacid = O=C(O)CCCCCCCCCCCCCCCCC(=O)*; γGlu = O=C(O)[C@H](CCC(=O)[*:2])N[*:1]; αMeF = C[C@](N)(Cc1ccccc1)C(=O)O; AEEA = NCCOCCOCC(=O)O; Aib = CC(C)(N)C(=O)O
Key:
[1] = target: human GLP-1 receptor (hGLP-1R) (Homo sapiens, UniProt P43220); assay: cAMP production (HTRF) in CHO cells expressing hGLP-1R; format: cell-based; parameters: expressed in transfected cells; conditions: for EC50: Table 6, peptides modified at position 17, cAMP in CHO hGLP-1R cells, geometric mean; for % Relative Potency Ratio: Table 6, % GLP-1R activity relative to GLP-1 / % GlucR activity relative to glucagon
In short: (§1)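 Cells were resuspended in assay buffer at batch-optimized density, typically 1×10^5 cells/mL for hGLP-1R and 2×10^5 cells/mL for hGCGR. After 30 min incubation at room temperature with compound, cAMP was measured by two-step HTRF. EC50 values came from 4-parameter logistic fits of % Delta F.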

[2] = target: human glucagon receptor (hGCGR) (Homo sapiens, UniProt P47871); assay: cAMP production (HTRF) in CHO cells expressing hGCGR; format: cell-based; parameters: expressed in transfected cells; conditions: Table 6, peptides modified at position 17, cAMP in CHO hGCGR cells, geometric mean
In short: as §1

human glucagon receptor (hGCGR), sequence (P47871 26-477): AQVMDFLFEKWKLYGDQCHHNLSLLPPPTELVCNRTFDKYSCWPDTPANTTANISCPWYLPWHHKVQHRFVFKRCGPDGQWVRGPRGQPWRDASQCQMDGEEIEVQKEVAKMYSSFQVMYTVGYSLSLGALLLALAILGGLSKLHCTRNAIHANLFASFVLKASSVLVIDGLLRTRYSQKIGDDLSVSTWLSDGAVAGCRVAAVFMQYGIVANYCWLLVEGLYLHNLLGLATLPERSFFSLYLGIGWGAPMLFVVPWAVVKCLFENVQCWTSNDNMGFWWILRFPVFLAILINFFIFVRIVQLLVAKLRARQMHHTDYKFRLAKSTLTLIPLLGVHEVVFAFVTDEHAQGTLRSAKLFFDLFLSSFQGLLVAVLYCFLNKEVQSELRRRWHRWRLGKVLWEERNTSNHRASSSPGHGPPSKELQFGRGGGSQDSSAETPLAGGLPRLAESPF
human GLP-1 receptor (hGLP-1R), sequence (P43220 24-463): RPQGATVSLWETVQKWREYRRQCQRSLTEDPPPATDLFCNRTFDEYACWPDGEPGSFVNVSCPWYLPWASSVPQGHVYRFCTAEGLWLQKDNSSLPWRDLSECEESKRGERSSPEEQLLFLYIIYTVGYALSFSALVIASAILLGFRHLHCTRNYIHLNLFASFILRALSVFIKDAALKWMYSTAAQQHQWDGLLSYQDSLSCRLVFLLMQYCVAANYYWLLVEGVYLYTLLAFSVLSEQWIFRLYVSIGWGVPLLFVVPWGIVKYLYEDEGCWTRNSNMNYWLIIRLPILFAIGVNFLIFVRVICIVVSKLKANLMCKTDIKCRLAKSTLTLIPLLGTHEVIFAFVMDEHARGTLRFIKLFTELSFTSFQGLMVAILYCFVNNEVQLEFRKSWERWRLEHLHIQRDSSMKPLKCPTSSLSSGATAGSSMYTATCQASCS

Row | SMILES | EC50 ([1]; read-out: hGLP-1R EC50) [pM] | % Relative Potency Ratio [1] | EC50 ([2]; read-out: hGluc-R EC50) [pM] | EC50 ([1]; hGLP-1R EC50 (pM)) [pM] | EC50 ([2]; hGluc-R EC50 (pM)) [pM]
1 | CC(C)C[C@H](NC(=O)[C@H](CCC(=O)O)NC(=O)[C@H](CC(C)C)NC(=O)[C@](C)(Cc1ccccc1)NC(=O)[C@H](CCCCN)NC(=O)[C@H](CO)NC(=O)[C@@H](NC(=O)[C@H](CC(=O)O)NC(=O)[C@H](CO)NC(=O)[C@@H](NC(=O)[C@H](Cc1ccccc1)NC(=O)[C@@H](NC(=O)CNC(=O)[C@H](CCC(N)=O)NC(=O)C(C)(C)NC(=O)[C@@H](N)Cc1c[nH]cn1)[C@@H](C)O)[C@@H](C)O)C(C)C)C(=O)N[C@@H](CCCCNC(=O)COCCOCCNC(=O)COCCOCCNC(=O)CC[C@H](NC(=O)CCCCCCCCCCCCCCCCC(=O)O)C(=O)O)C(=O)N[C@@H](CCCNC(=N)N)C(=O)N[C@@H](C)C(=O)N[C@@H](CCC(N)=O)C(=O)N[C@@H](CC(=O)O)C(=O)N[C@@H](Cc1ccccc1)C(=O)N[C@H](C(=O)N[C@@H](CCCNC(=N)N)C(=O)N[C@@H](Cc1c[nH]c2ccccc12)C(=O)N[C@@H](CC(C)C)C(=O)N[C@@H](CC(C)C)C(=O)NC(C)(C)C(=O)N[C@H](C(=O)N[C@@H](CCC(=O)O)C(=O)O)[C@@H](C)O)C(C)C [Peptide 169] (H-H[Aib]QGTFTSDVSK[αMeF]LELK([AEEA-AEEA-γGlu-C18 diacid])RAQDFVRWLL[Aib]TE-OH; N-terminus assumed) |  |  |  | 210 | 1400
2 | CC(C)C[C@H](NC(=O)[C@H](Cc1c[nH]c2ccccc12)NC(=O)[C@H](CCCNC(=N)N)NC(=O)[C@@H](NC(=O)[C@H](Cc1ccccc1)NC(=O)[C@H](CC(=O)O)NC(=O)[C@H](CCC(N)=O)NC(=O)[C@H](C)NC(=O)[C@H](CCCNC(=N)N)NC(=O)[C@H](CCCCNC(=O)COCCOCCNC(=O)COCCOCCNC(=O)CC[C@H](NC(=O)CCCCCCCCCCCCCCCCC(=O)O)C(=O)O)NC(=O)[C@H](CCC(=O)O)NC(=O)[C@H](CC(=O)O)NC(=O)[C@H](CC(C)C)NC(=O)[C@](C)(Cc1ccccc1)NC(=O)[C@H](CCCCN)NC(=O)[C@H](CO)NC(=O)[C@@H](NC(=O)[C@H](CC(=O)O)NC(=O)[C@H](CO)NC(=O)[C@@H](NC(=O)[C@H](Cc1ccccc1)NC(=O)[C@@H](NC(=O)CNC(=O)[C@H](CCC(N)=O)NC(=O)C(C)(C)NC(=O)[C@@H](N)Cc1c[nH]cn1)[C@@H](C)O)[C@@H](C)O)C(C)C)C(C)C)C(=O)N[C@@H](CC(C)C)C(=O)NC(C)(C)C(=O)N[C@H](C(=O)N[C@@H](CCC(=O)O)C(=O)O)[C@@H](C)O [Peptide 170] (H-H[Aib]QGTFTSDVSK[αMeF]LDEK([AEEA-AEEA-γGlu-C18 diacid])RAQDFVRWLL[Aib]TE-OH; N-terminus assumed) | 148 | 11.2 | 836 |  | 
3 | CC(C)C[C@H](NC(=O)[C@H](Cc1c[nH]c2ccccc12)NC(=O)[C@H](CCCNC(=N)N)NC(=O)[C@@H](NC(=O)[C@H](Cc1ccccc1)NC(=O)[C@H](CC(=O)O)NC(=O)[C@H](CCC(N)=O)NC(=O)[C@H](C)NC(=O)[C@H](CCCNC(=N)N)NC(=O)[C@H](CCCCNC(=O)COCCOCCNC(=O)COCCOCCNC(=O)CC[C@H](NC(=O)CCCCCCCCCCCCCCCCC(=O)O)C(=O)O)NC(=O)[C@H](CO)NC(=O)[C@H](CC(=O)O)NC(=O)[C@H](CC(C)C)NC(=O)[C@](C)(Cc1ccccc1)NC(=O)[C@H](CCCCN)NC(=O)[C@H](CO)NC(=O)[C@@H](NC(=O)[C@H](CC(=O)O)NC(=O)[C@H](CO)NC(=O)[C@@H](NC(=O)[C@H](Cc1ccccc1)NC(=O)[C@@H](NC(=O)CNC(=O)[C@H](CCC(N)=O)NC(=O)C(C)(C)NC(=O)[C@@H](N)Cc1c[nH]cn1)[C@@H](C)O)[C@@H](C)O)C(C)C)C(C)C)C(=O)N[C@@H](CCC(=O)O)C(=O)NC(C)(C)C(=O)N[C@H](C(=O)N[C@@H](CCC(=O)O)C(=O)O)[C@@H](C)O [Peptide 171] (H-H[Aib]QGTFTSDVSK[αMeF]LDSK([AEEA-AEEA-γGlu-C18 diacid])RAQDFVRWLE[Aib]TE-OH; N-terminus assumed) | 107 | 7.0 | 376 |  | 
4 | CC(C)C[C@H](NC(=O)[C@H](Cc1c[nH]c2ccccc12)NC(=O)[C@H](CCCNC(=N)N)NC(=O)[C@@H](NC(=O)[C@H](Cc1ccccc1)NC(=O)[C@H](CC(=O)O)NC(=O)[C@H](CCC(N)=O)NC(=O)[C@H](C)NC(=O)[C@H](CCCNC(=N)N)NC(=O)[C@H](CCCCNC(=O)COCCOCCNC(=O)COCCOCCNC(=O)CC[C@H](NC(=O)CCCCCCCCCCCCCCCCC(=O)O)C(=O)O)NC(=O)[C@H](CO)NC(=O)[C@H](CCC(=O)O)NC(=O)[C@H](CC(C)C)NC(=O)[C@](C)(Cc1ccccc1)NC(=O)[C@H](CCCCN)NC(=O)[C@H](CO)NC(=O)[C@@H](NC(=O)[C@H](CC(=O)O)NC(=O)[C@H](CO)NC(=O)[C@@H](NC(=O)[C@H](Cc1ccccc1)NC(=O)[C@@H](NC(=O)CNC(=O)[C@H](CCC(N)=O)NC(=O)C(C)(C)NC(=O)[C@@H](N)Cc1c[nH]cn1)[C@@H](C)O)[C@@H](C)O)C(C)C)C(C)C)C(=O)N[C@@H](CC(C)C)C(=O)NC(C)(C)C(=O)N[C@H](C(=O)N[C@@H](CCC(=O)O)C(=O)O)[C@@H](C)O [Peptide 172] (H-H[Aib]QGTFTSDVSK[αMeF]LESK([AEEA-AEEA-γGlu-C18 diacid])RAQDFVRWLL[Aib]TE-OH; N-terminus assumed) | 213 | 11.8 | 1270 |  | 
5 | CC(C)C[C@H](NC(=O)[C@H](Cc1c[nH]c2ccccc12)NC(=O)[C@H](CCCNC(=N)N)NC(=O)[C@@H](NC(=O)[C@H](Cc1ccccc1)NC(=O)[C@H](CC(=O)O)NC(=O)[C@H](CCC(N)=O)NC(=O)[C@H](C)NC(=O)[C@H](CCCNC(=N)N)NC(=O)[C@H](CCCCNC(=O)COCCOCCNC(=O)COCCOCCNC(=O)CC[C@H](NC(=O)CCCCCCCCCCCCCCCCC(=O)O)C(=O)O)NC(=O)[C@H](CO)NC(=O)[C@H](CCC(=O)O)NC(=O)[C@H](CC(C)C)NC(=O)[C@](C)(Cc1ccccc1)NC(=O)[C@H](CCCCN)NC(=O)[C@H](CO)NC(=O)[C@@H](NC(=O)[C@H](CC(=O)O)NC(=O)[C@H](CO)NC(=O)[C@@H](NC(=O)[C@H](Cc1ccccc1)NC(=O)[C@@H](NC(=O)CNC(=O)[C@H](CCC(N)=O)NC(=O)C(C)(C)NC(=O)[C@@H](N)Cc1c[nH]cn1)[C@@H](C)O)[C@@H](C)O)C(C)C)C(C)C)C(=O)N[C@@H](CC(C)C)C(=O)NC(C)(C)C(=O)N[C@@H](CCC(=O)O)C(=O)O [Peptide 173] (H-H[Aib]QGTFTSDVSK[αMeF]LESK([AEEA-AEEA-γGlu-C18 diacid])RAQDFVRWLL[Aib]E-OH; N-terminus assumed) | 134 | 12.9 | 874 |  | 

Now from value to compound, other results behind:

Row | EC50 ([1]; read-out: hGLP-1R EC50) [pM] | % Relative Potency Ratio [1] | EC50 ([2]; read-out: hGluc-R EC50) [pM] | SMILES | EC50 ([1]; hGLP-1R EC50 (pM)) [pM] | EC50 ([2]; hGluc-R EC50 (pM)) [pM]
6 | 127 | 6.5 | 420 | CC(C)C[C@H](NC(=O)[C@H](Cc1c[nH]c2ccccc12)NC(=O)[C@H](CCCNC(=N)N)NC(=O)[C@@H](NC(=O)[C@H](Cc1ccccc1)NC(=O)[C@H](CC(=O)O)NC(=O)[C@H](CCC(N)=O)NC(=O)[C@H](C)NC(=O)[C@H](CCCNC(=N)N)NC(=O)[C@H](CCCCNC(=O)COCCOCCNC(=O)COCCOCCNC(=O)CC[C@H](NC(=O)CCCCCCCCCCCCCCCCC(=O)O)C(=O)O)NC(=O)[C@@H](NC(=O)[C@H](CC(=O)O)NC(=O)[C@H](CC(C)C)NC(=O)[C@](C)(Cc1ccccc1)NC(=O)[C@H](CCCCN)NC(=O)[C@H](CO)NC(=O)[C@@H](NC(=O)[C@H](CC(=O)O)NC(=O)[C@H](CO)NC(=O)[C@@H](NC(=O)[C@H](Cc1ccccc1)NC(=O)[C@@H](NC(=O)CNC(=O)[C@H](CCC(N)=O)NC(=O)C(C)(C)NC(=O)[C@@H](N)Cc1c[nH]cn1)[C@@H](C)O)[C@@H](C)O)C(C)C)[C@@H](C)O)C(C)C)C(=O)N[C@@H](CC(C)C)C(=O)NC(C)(C)C(=O)N[C@H](C(=O)N[C@@H](CCC(=O)O)C(=O)O)[C@@H](C)O [Peptide 174] (H-H[Aib]QGTFTSDVSK[αMeF]LDTK([AEEA-AEEA-γGlu-C18 diacid])RAQDFVRWLL[Aib]TE-OH; N-terminus assumed) |  | 
7 | 68.4 | 58.4 | 2020 | CC(C)C[C@H](NC(=O)[C@H](Cc1c[nH]c2ccccc12)NC(=O)[C@H](CCCNC(=N)N)NC(=O)[C@@H](NC(=O)[C@H](Cc1ccccc1)NC(=O)[C@H](CC(=O)O)NC(=O)[C@H](CCC(N)=O)NC(=O)[C@H](C)NC(=O)[C@H](CCCNC(=N)N)NC(=O)[C@H](CCCCNC(=O)COCCOCCNC(=O)COCCOCCNC(=O)CC[C@H](NC(=O)CCCCCCCCCCCCCCCCC(=O)O)C(=O)O)NC(=O)[C@H](CO)NC(=O)[C@H](CC(=O)O)NC(=O)[C@H](CC(C)C)NC(=O)[C@](C)(Cc1ccccc1)NC(=O)[C@H](CCCCN)NC(=O)[C@H](CO)NC(=O)[C@@H](NC(=O)[C@H](CC(=O)O)NC(=O)[C@H](CO)NC(=O)[C@@H](NC(=O)[C@H](Cc1ccccc1)NC(=O)[C@@H](NC(=O)CNC(=O)[C@H](CCC(N)=O)NC(=O)C(C)(C)NC(=O)[C@@H](N)Cc1c[nH]cn1)[C@@H](C)O)[C@@H](C)O)C(C)C)C(C)C)C(=O)N[C@@H](C)C(=O)NC(C)(C)C(=O)N[C@H](C(=O)N[C@@H](CCC(=O)O)C(=O)O)[C@@H](C)O [Peptide 175] (H-H[Aib]QGTFTSDVSK[αMeF]LDSK([AEEA-AEEA-γGlu-C18 diacid])RAQDFVRWLA[Aib]TE-OH) |  | 

— patent publication US20250353891A1 (MEDIMMUNE LIMITED, priority 2022, published 2025)
